Experimental findings from patent US20250154154A1 (Relay Binney Street, 2nd Floor, priority 2020, published 2025) are described below.

pIC50: −log10 of the molar value. Bounds are passed on as bounds.

One experiment concerns the target SRC (Homo sapiens, UniProt P12931). Kind of experiment: SRC Biochemical Assay Protocol (microfluidic mobility shift assay, FLPeptide4 substrate). Put shortly:
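Mobility-shift readout of phosphorylated FLPeptide4 (1.5 μM) after 90 min kinase reaction with 50 μM ATP and 0.26 nM SRC in pH 7.4 HEPES buffer. Compounds, tested 0.0017–100 μM, were preincubated 30 min with enzyme and peptide; IC50 from 4-parameter logistic fit versus neutral controls.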

A further experiment relates to RBE cells. The experiment can be described thus: Cell Viability Protocol (CellTiterGlo), RBE cells. Type of experiment: cell-based. As to conditions: RBE or SNU-1079 cells, 72 or 120 hour, cell line and time not given. Put shortly:
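After 72 h or 120 h compound exposure at 37° C, viability was read by CellTiterGlo as % of DMSO vehicle, with IC50 fitted by a 4-parameter curve. Cells had been seeded at 1200/well in 10% FBS RPMI 1640 and allowed 24 h before dosing.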

Experiment [1] has as its system phospho-S6RP (Ser 235/236) in RBE cells. Kind of experiment: Cellular Proliferation Protocol (cellular phospho-S6RP HTRF), RBE cells. Type of experiment: cell-based. Particulars: 6 hours treatment, RBE or SNU-1079 cells, cell line not given. The method, boiled down:
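Phospho-S6RP (Ser 235/236) was quantified by HTRF in lysed RBE cells (2000/well) after a 6 h treatment at 37° C, with overnight antibody incubation at room temperature. IC50 values came from 4-parameter dose-response fits relative to DMSO vehicle.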

Sequence of SRC (P12931 whole entry, species assumed): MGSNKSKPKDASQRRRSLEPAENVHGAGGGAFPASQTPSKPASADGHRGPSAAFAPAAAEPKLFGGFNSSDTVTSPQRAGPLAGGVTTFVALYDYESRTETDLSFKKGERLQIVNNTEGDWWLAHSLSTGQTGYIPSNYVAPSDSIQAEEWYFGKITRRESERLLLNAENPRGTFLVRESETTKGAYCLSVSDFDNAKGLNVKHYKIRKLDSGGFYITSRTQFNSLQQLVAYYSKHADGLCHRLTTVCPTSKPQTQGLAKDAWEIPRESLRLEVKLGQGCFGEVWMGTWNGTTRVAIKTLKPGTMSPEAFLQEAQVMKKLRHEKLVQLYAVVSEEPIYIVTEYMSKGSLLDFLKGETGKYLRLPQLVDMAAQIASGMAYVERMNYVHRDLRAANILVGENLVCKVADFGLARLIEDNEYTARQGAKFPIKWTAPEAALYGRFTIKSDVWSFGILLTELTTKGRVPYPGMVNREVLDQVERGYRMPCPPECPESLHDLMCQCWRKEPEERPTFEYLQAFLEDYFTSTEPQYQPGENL

For the compound `C=CC(=O)N1CC[C@@H](N2CC(C#Cc3c(-c4ccc(Cl)c(OC)n4)c4c(N)ncnc4n3C)C2)[C@@H](O)C1` [II-318], the pIC50 (at SRC; in the experiment with RBE cells; in experiment [1]) was 6.00 to 8.00 in each case.
For `C=CC(=O)N1CCC(N2CC(C#Cc3c(-c4ccc(Oc5cccc(C)n5)c(OC)c4)c4c(N)nccc4n3C)C2)CC1` [II-80], the pIC50 on SRC was 5.00 to 6.00; in the experiment on RBE cells it was 6.00 to 8.00; in experiment [1] it was 5.00 to 6.00.
For `C=CC(=O)N1C[C@@H]2[C@@H](C#Cc3c(-c4ccc(Cl)c(OC)c4)c4c(N)ncnc4n3C(C)C)[C@@H]2C1` [II-271], the pIC50 (on SRC; in the experiment on RBE cells; in experiment [1] (6 h)) was at least 8.00 throughout.
As for `C=CC(=O)N1C[C@@H]2[C@@H](C#Cc3c(-c4ccc(Oc5cccc(C)n5)cc4OC)c4c(N)ncnc4n3CS(C)(=O)=O)[C@@H]2C1` [II-50], the pIC50 is 6.00 to 8.00 at SRC, 5.00 to 6.00 in the experiment on RBE cells and 5.00 to 6.00 in experiment [1].
On to `C=CC(=O)N1CCC(N2CC(C#Cc3c(-c4ccc(Cl)c(OC)n4)c4c(N)ncnc4n3C(C)C)C2)CC1` [II-327], for which the pIC50 on SRC is at least 8.00; in the experiment with RBE cells, 6.00 to 8.00; in experiment [1] it was 6.00 to 8.00.
Consider `C=CC(=O)N1CC2C(C#Cc3c(-c4ccc(Cl)c5c4OC(F)(F)O5)c4c(N)ncnc4n3C)C2C1` (stereo not drawn) [II-128], for which the pIC50 on SRC is 5.00 to 6.00; in the experiment on RBE cells it was 6.00 to 8.00; in experiment [1] it was 5.00 to 6.00.
As to `C=CC(=O)N1C[C@@H]2[C@@H](C#Cc3c(-c4ccc(Oc5cccc(C)n5)cc4OC)c4c(N)ncnc4n3CCCO)[C@@H]2C1` [II-49], the pIC50 (on SRC; in the experiment on RBE cells; in experiment [1]) was 6.00 to 8.00 in each case.
Turning to `C=CC(=O)N1CCC(C#Cc2c(-c3ccc(Oc4ccccc4)cc3)c3c(N)ncnc3n2CCN2CCN(C)CC2)CC1` [Example I-52], the pIC50 (on SRC; with RBE cells; in experiment [1] (6 h)) was 6.00 to 8.00 each time.
On to `C=CC(=O)N1CCC(N2CC(C#Cc3c(-c4ccc(OC)c(OC)c4)c4c(N)ncnc4n3C)C2)CC1` [II-106], for which the pIC50 (on SRC; with RBE cells; in experiment [1]) was 6.00 to 8.00 throughout.
`C=CC(=O)N1CC[C@@H](N2CC(C#Cc3c(-c4ccc5c(c4)OCCN5C)c4c(N)ncnc4n3C)C2)[C@@H](O)C1` [II-75]: the pIC50 (on SRC; in the experiment on RBE cells; in experiment [1]) was 5.00 to 6.00 each time.
Turning to `C=CC(=O)N1CCC(N2CC(C#Cc3c(-c4ccc5c(c4)OCCO5)c4c(N)ncnc4n3C)C2)CC1` [II-104], the negative-log IC50 (pIC50) (on SRC; in the experiment with RBE cells; in experiment [1]) was 6.00 to 8.00 in each case.
With `C=CC(=O)N1CCC(C#Cc2c(-c3ccc(Oc4cccc(C)n4)cc3)c3c(N)ncnc3n2C(C)C)CC1` [Example I-23], the pIC50 (at SRC; in the experiment with RBE cells; in experiment [1] (6 h)) was 6.00 to 8.00 in each case.
In the case of `C=CS(=O)(=O)N1CC[C@@H](N2CC(C#Cc3c(-c4ccc(Oc5ccccc5)c(OC)c4)c4c(N)ncnc4n3C)C2)[C@@H](O)C1` [II-82], the pIC50 on SRC was at least 8.00; in the experiment with RBE cells, at least 8.00; in experiment [1] it was 6.00 to 8.00.
Take `Cc1ccnc(Oc2ccc(-c3c(C#C[C@@H]4[C@H]5CN(C(=O)/C=C/CN(C)C)C[C@@H]45)n(C)c4ncnc(N)c34)cc2)c1` [II-241, (E)-1-((1R,5S,6s)-6-((4-amino-7-methyl-5-(4-((4-methylpyridin-2-yl)oxy)phenyl)-7H-pyrrolo[2,3-d]pyrimidin-6-yl)ethynyl)-3-azabicyclo[3.1.0]hexan-3-yl)-4-(dimethylamino) but-2-en-1-one]: the pIC50 (at SRC; in the experiment on RBE cells; in experiment [1]) was 6.00 to 8.00 throughout.
Consider `C=CC(=O)N1C[C@@H]2[C@@H](C#Cc3c(-c4c(Cl)ccc5c4OCO5)c4c(N)ncnc4n3C)[C@@H]2C1` [II-38], for which the pIC50 (at SRC; in the experiment with RBE cells; in experiment [1]) was 6.00 to 8.00 each time.
Regarding `C=CC(=O)N1C[C@@H]2[C@@H](C#Cc3c(-c4ccc(Oc5cccc(C)n5)c(OC)c4)c4c(N)ncnc4n3CS(C)(=O)=O)[C@@H]2C1` [II-51], the pIC50 (on SRC; with RBE cells; in experiment [1]) was 6.00 to 8.00 in each case.
Take `C=CC(=O)N1C[C@@H]2[C@@H](C#Cc3c(-c4ccc(Oc5cccc(C)n5)cc4OC)c4c(N)ncnc4n3C)[C@@H]2C1` [II-42]: the pIC50 (on SRC; in the experiment on RBE cells; in experiment [1]) was 6.00 to 8.00 throughout.
For the compound `C=CC(=O)N1CC[C@H](N2CC(C#Cc3c(-c4ccc(Oc5ccccc5)cc4)c4c(N)ncnc4n3C)C2)[C@H](F)C1` [II-170, 1-((3R,4S)-4-(3-((4-amino-7-methyl-5-(4-phenoxyphenyl)-7H-pyrrolo[2,3-d]pyrimidin-6-yl)ethynyl)azetidin-1-yl)-3-fluoropiperidin-1-yl)prop-2-en-1-one], the pIC50 on SRC was 6.00 to 8.00; in the experiment with RBE cells, at least 8.00; in experiment [1] (6 h), at least 8.00.
Take `C=CC(=O)N1CC2C(C#Cc3c(-c4cccc5c4OC(F)(F)O5)c4c(N)ncnc4n3C)C2C1` (stereo not drawn) [II-129]: the pIC50 at SRC is 5.00 to 6.00; in the experiment on RBE cells, 6.00 to 8.00; in experiment [1] it was 5.00 to 6.00.
Turning to `C=CC(=O)N1C[C@@H]2[C@@H](C#Cc3c(-c4ccc(Oc5cccc(C)n5)cc4)c4c(N)ncnc4n3C)[C@@H]2C1` [II-206, 1-[(1R,5S,6S)-6-[2-(4-amino-7-methyl-5-[4-[(6-methylpyridin-2-yl)oxy]phenyl]-7H-pyrrolo[2,3-d]pyrimidin-6-yl)ethynyl]-3-azabicyclo[3.1.0]hexan-3-yl]prop-2-en-1-one], the pIC50 was 6.00 to 8.00 on SRC, at least 8.00 in the experiment on RBE cells and at least 8.00 in experiment [1] (6 h).
In the case of `C=CC(=O)N1CC[C@H](N2CC(C#Cc3c(-c4ccccc4OC)c4c(N)ncnc4n3C)C2)[C@H](O)C1` [II-274], the pIC50 on SRC was 6.00 to 8.00; in the experiment with RBE cells it was 5.00 to 6.00; in experiment [1] (6 h), 5.00 to 6.00.
As for `C=CC(=O)N1CCC(N2CC(C#Cc3c(-c4ccc(C5CC5)cc4)c4c(N)ncnc4n3C)C2)CC1` [II-99], the pIC50 (at SRC; with RBE cells; in experiment [1]) was 6.00 to 8.00 each time.
Consider `C=CC(=O)N1CCC(N2CC(F)(C#Cc3c(-c4ccc(Oc5ccccc5)cc4)c4c(N)ncnc4n3C)C2)CC1` [II-176, 1-(4-(3-((4-amino-7-methyl-5-(4-phenoxyphenyl)-7H-pyrrolo[2,3-d]pyrimidin-6-yl)ethynyl)-3-fluoroazetidin-1-yl)piperidin-1-yl)prop-2-en-1-one], for which the pIC50 on SRC is 6.00 to 8.00; with RBE cells, at least 8.00; in experiment [1] (6 h), at least 8.00.
Turning to `C=CC(=O)N1CCC(N2CC(C#Cc3c(-c4ccc(Oc5ccccc5)c(OC(F)F)c4)c4c(N)ncnc4n3C)C2)CC1` [II-35, 1-(4-(3-((4-amino-5-(3-(difluoromethoxy)-4-phenoxyphenyl)-7-methyl-7H-pyrrolo[2,3-d]pyrimidin-6-yl)ethynyl)azetidin-1-yl)piperidin-1-yl)prop-2-en-1-one], the pIC50 (at SRC; in the experiment on RBE cells; in experiment [1] (6 h)) was 6.00 to 8.00 in each case.
As to `Cn1c(C#CC2CC3(C2)CN(C(=O)/C=C/CN2CC(O)C2)C3)c(-c2ccc(Oc3ccccc3)cc2)c2c(N)ncnc21` [II-174, (E)-1-(6-((4-amino-7-methyl-5-(4-phenoxyphenyl)-7H-pyrrolo[2,3-d]pyrimidin-6-yl)ethynyl)-2-azaspiro[3.3]heptan-2-yl)-4-(3-hydroxyazetidin-1-yl)but-2-en-1-one], the results for the pIC50 (on SRC; in the experiment with RBE cells; in experiment [1] (6 h)) were at least 8.00, 6.00 to 8.00 and 6.00 to 8.00, respectively.
`C=CC(=O)N1CCC(N2CC(C#Cc3c(-c4ccc(Oc5ccccc5)cc4)c4c(N)ncnc4n3C)C2)C1` (stereo not drawn) [II-195, 1-(3-(3-((4-amino-7-methyl-5-(4-phenoxyphenyl)-7H-pyrrolo[2,3-d]pyrimidin-6-yl)ethynyl)azetidin-1-yl)pyrrolidin-1-yl)prop-2-en-1-one]: the negative-log IC50 (pIC50) (on SRC; in the experiment on RBE cells; in experiment [1] (6 h)) was 6.00 to 8.00 throughout.
For the compound `C=CC(=O)N1CC[C@@H](N2CC(C#Cc3c(-c4ccc(Oc5cccc(F)c5)cc4)c4c(N)ncnc4n3C)C2)[C@@H](O)C1`, the pIC50 (at SRC; with RBE cells; in experiment [1]) was 6.00 to 8.00 each time.
Turning to `C=CC(=O)N1CCC(N2CC(C#Cc3c(-c4ccc(Cl)c(CF)c4)c4c(N)ncnc4n3C)C2)CC1` [II-89], the negative-log IC50 (pIC50) (at SRC; in the experiment on RBE cells; in experiment [1]) was 6.00 to 8.00 in each case.
Consider `C=CC(=O)N1CCC(N2CC(C#Cc3c(-c4ccc(OC(C)C)c(OC)c4)c4c(N)ncnc4n3C)C2)CC1` [II-101], for which the pIC50 (at SRC; in the experiment on RBE cells; in experiment [1]) was 6.00 to 8.00 in each case.
Take `C=CC(=O)N1CC[C@H](N2CC(C#Cc3c(-c4ccc(Oc5cccc(C)n5)c(OC)c4)c4c(N)ncnc4n3C)C2)[C@H](F)C1` [II-309]: the negative-log IC50 (pIC50) (on SRC; in the experiment with RBE cells; in experiment [1] (6 h)) was 6.00 to 8.00 in each case.
